Experiments:
NR1/NR2B [1] = target: NR1/NR2B (Homo sapiens (Human), UniProt Q13224); assay: Cell assay: FDSS Ca2+ influx inhibition in HEK293 cells expressing NR1/NR2B; details: read-out: NR2B NAM IC50; HEK293 cells expressing NR1/NR2B, Ca2+ influx;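 further: Fluo-8 Ca2+ signal read on Hamamatsu FDSS 6000 after glutamate, glycine and Ca2+ challenge following 10 min compound preincubation, end/baseline fluorescence ratio compared with MK801 control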
Description: (§1) Cell Culture and plating: HEK293 cells expressing NR1/NR2B (Chantest, Cleveland, Ohio) were grown to 70-80% confluency as an adherent monolayer in standard tissue culture flasks at 37° C., 5% CO2 per supplier's instructions. NR2B expression was induced by incubation with 0.3-0.4 μg/ml tetracycline in the presence of 4 mM ARL-15896 for 18-24 hours under the same growth conditions, then transferred to 30° C. for another 3-5 hours.
(§2) After induction, cell culture medium was removed and cells were rinsed once with Ca^2+ and Mg^2+-free Dulbecco's phosphate buffered saline. Cells were then removed from the flask using TrypLE™ Express (Life Technologies) according to the manufacturer's instructions and collected to 50 ml centrifuge tubes. Following two washes in Ca^2+/Mg^2+-free HBSS with 20 mM HEPES (HHnoCa), cells were counted and viability assessed using trypan blue. To load cells with Ca^2+-sensitive dye, they were resuspended in fluo-8 plus Component B (AAT Bioquest Products) diluted in HHnoCa and incubated 15 minutes at 37° C., followed by 30 minutes at room temp (in dark). Cells were then washed and resuspended in HHnoCa to remove extracellular dye and plated in 384-well plates (Falcon, uncoated) at 20,000-30,000 cells/well in a final volume of 25 μl/well.
(§3) FDSS Assay: To each well of the plate, 10 μL test compound, control (MK801) or HHnoCa buffer was added to a final concentration of 10 μM with a final concentration of DMSO of 0.1%. Following 10 minutes pre-incubation in the dark, plates are loaded onto the Hamamatsu FDSS 6000. After collecting baseline fluorescence images, 3 μM glutamate, 3 glycine, and 1 mM Ca^2+ in HHnoCa buffer is added to each well, and Ca^2+ is recorded for 3 minutes. Data were processed by computing ratio of fluorescence at the end of data collection to baseline fluorescence to assess degree of Ca′ influx inhibition relative to that observed in MK801.

NR1/NR2B [2] = target: NR1/NR2B (Homo sapiens (Human), UniProt Q05586+Q13224); assay: as above; details: Binned Activity, HEK293 cells expressing NR1/NR2B, Ca2+ influx; binned NR2B NAM IC50
Sequence of NR1/NR2B (Homo sapiens (Human), UniProt Q05586+Q13224) (Q13224 27-1484, other chains not shown): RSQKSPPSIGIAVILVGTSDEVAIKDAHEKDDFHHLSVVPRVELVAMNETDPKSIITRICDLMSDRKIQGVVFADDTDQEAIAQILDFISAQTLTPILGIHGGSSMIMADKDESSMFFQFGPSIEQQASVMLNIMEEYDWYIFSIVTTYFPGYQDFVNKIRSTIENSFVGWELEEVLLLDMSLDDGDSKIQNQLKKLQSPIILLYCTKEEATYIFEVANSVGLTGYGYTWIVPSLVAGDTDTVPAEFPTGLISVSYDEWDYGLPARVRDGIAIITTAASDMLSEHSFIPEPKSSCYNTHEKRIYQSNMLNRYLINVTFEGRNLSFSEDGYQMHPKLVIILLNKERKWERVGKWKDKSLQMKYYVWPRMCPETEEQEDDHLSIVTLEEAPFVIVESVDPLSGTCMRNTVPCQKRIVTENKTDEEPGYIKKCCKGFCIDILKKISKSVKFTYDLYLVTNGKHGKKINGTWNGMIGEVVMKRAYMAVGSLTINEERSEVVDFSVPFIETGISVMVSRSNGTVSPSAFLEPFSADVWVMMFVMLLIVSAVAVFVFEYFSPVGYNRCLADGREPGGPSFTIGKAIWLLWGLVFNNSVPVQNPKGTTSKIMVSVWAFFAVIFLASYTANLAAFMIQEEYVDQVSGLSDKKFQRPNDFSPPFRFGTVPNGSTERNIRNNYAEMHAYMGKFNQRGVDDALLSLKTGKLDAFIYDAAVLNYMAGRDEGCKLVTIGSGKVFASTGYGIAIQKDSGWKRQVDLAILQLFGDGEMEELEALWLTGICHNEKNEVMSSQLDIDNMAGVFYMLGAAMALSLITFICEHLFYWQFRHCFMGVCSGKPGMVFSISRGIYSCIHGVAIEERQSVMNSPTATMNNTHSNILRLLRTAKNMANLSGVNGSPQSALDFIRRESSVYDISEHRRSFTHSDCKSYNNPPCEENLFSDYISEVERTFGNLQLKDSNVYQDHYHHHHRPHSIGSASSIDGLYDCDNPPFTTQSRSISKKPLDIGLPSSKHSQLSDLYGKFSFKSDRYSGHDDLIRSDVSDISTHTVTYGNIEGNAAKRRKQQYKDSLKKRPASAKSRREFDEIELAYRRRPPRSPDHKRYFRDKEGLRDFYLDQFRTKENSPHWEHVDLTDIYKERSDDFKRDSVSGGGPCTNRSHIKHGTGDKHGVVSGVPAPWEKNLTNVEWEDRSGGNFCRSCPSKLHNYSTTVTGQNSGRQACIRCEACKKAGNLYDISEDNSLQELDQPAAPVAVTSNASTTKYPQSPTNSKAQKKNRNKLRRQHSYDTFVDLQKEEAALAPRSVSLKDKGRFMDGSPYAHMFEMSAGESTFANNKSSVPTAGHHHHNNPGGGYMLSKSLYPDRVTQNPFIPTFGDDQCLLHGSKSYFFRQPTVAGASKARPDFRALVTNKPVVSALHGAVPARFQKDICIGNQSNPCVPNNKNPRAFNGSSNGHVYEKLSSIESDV
Description: as §1, §2, §3

Sequence of NR1/NR2B (Homo sapiens (Human), UniProt Q13224) (Q13224 27-1484, other chains not shown): as above

Row | IC50 (NR1/NR2B [1]) | IC50 (NR1/NR2B [2]) | Compound
1 | 10 µM | > 10 µM | O=C(CN1C[C@@H]2C[C@@](O)(Cc3ccccc3)C[C@@H]2C1)c1ccc(-c2ccccn2)cc1 [Example 266, 2-((3aR,5r,6aS)-5-benzyl-5-hydroxyhexahydrocyclo-prenta[c]pyrrol-2(1H)-yl)-1-(4-(pyridin-2-yl)phenyl)ethanone]
2 | 10 µM | > 10 µM | O=C(CN1C[C@@H]2C[C@@](O)(Cc3ccccc3)C[C@@H]2C1)c1ccc(-c2cccc(F)c2)cc1 [Example 261, 2-((3aR,5r,6aS)-5-benzyl-5-hydroxyhexahydrocyclo-penta[c]pyrrol-2(1H)-yl)-1-(3′-fluoro-[1,1′-biphenyl]-4-yl)ethanone]
3 | 10 µM | > 10 µM | O=C(CN1C[C@@H]2C[C@@](O)(Cc3ccccc3)C[C@@H]2C1)c1cnc(O)cn1 [Example 187, 2-((3aR,5r,6aS)-5-benzyl-5-hydroxyhexahydrocyclo-penta[c]pyrrol-2(1H)-yl)-1-(5-hydroxypyrazin-2-yl)ethanone]
4 | 10 µM | > 10 µM | COc1ncc(-c2ccc(C(=O)CN3C[C@@H]4C[C@@](O)(Cc5ccccc5)C[C@@H]4C3)cc2)cn1 [Example 279, 2-((3aR,5r,6aS)-5-benzyl-5-hydroxyhexahydrocyclo-penta[c]pyrrol-2(1H)-yl)-1-(4-(2-methoxypyrimidin-5-yl)phenyl)ethanone]
5 | 0.346 µM | 0.1 to 1 µM | O=C(CN1C[C@@H]2C[C@@](O)(CC3CCCCC3)C[C@@H]2C1)c1ccc(O)cc1 [Example 205, 2-[(3aR,5R,6aS)-5-(cyclohexylmethyl)-5-hydroxy-octahydrocyclopenta[c]pyrrol-2-yl]-1-(4-hydroxyphenyl)ethan-1-one]
6 | 0.0981 µM | < 0.1 µM | COc1cccc(C[C@]2(O)C[C@H]3CN(CC(=O)c4ccc(O)cc4)C[C@H]3C2)c1 [Example 194, 2-((3aR,5r,6aS)-5-hydroxy-5-(3-meth-oxybenzyl)hexahydro-cyclopenta[c]pyrrol-2(1H)-yl)-1-(4-hydroxyphenyl)ethanone]
7 | 0.175 µM | 0.1 to 1 µM | O=C(CN1C[C@@H]2C[C@](F)(Cc3ccccc3)C[C@@H]2C1)c1ccc(O)cc1 [Example 310, 2-((3aR,5s,6aS)-5-benzyl-5-fluorohexahydrocyclo-penta[c]pyrrol-2(1H)-yl)-1-(4-hydroxyphenyl)ethanone]
8 | 0.137 µM | 0.1 to 1 µM | Cc1cc(F)ccc1C[C@]1(O)C[C@H]2CN(CC(=O)c3ccc(O)cc3)C[C@H]2C1 [Example 250, 2-((3aR,5r,6aS)-5-(4-fluoro-2-methylbenzyl)-5-hydroxyhexahydrocyclo-penta[c]pyrrol-2(1H)-yl)-1-(4-hydroxyphenyl)ethanone]
9 | 1.91 µM | 1 to 10 µM | O=C(CN1C[C@@H]2C[C@@](O)(Cc3c(F)cccc3F)C[C@@H]2C1)c1ccc(O)cn1 [Example 237, 2-[(3aR,5R,6aS)-5-[(2,6-difluorophenyl)methyl]-5-hydroxy-octahydrocyclopenta[c]pyrrol-2-yl]-1-(5-hydroxypyridin-2-yl)ethan-1-one]
10 | 10 µM | > 10 µM | COc1cccc(C[C@]2(O)C[C@H]3CN(CC(=O)c4ccc(O)cn4)C[C@H]3C2)c1 [Example 193, 2-((3aR,5r,6aS)-5-hydroxy-5-(3-meth-oxybenzyl)hexahydro-cyclopenta[c]pyrrol-2(1H)-yl)-1-(5-hydroxypyridin-2-yl)ethanone]

The remaining lines, values behind:

Row | Compound | IC50 (NR1/NR2B [1]) | IC50 (NR1/NR2B [2])
11 | COc1ccc(NC(=O)N2C[C@@H]3C[C@@](O)(c4ccc(C#N)cc4)C[C@@H]3C2)cc1 [Example 2, 5-(4-cyanophenyl)-5-hydroxy-N-(4-methoxyphenyl)-octahydrocyclopenta[c] pyrrole-2-carboxamide] | 10 µM | > 10 µM
12 | Oc1ccc([C@H](O)CN2C[C@@H]3C[C@@](O)(Cc4ccccc4)C[C@@H]3C2)nc1 [Example 165, (3aR,5R,6aS)-5-benzyl-2-((R)-2-hydroxy-2-(5-hydroxypyridin-2-yl)ethyl)octahydrocyclo-penta[c]pyrrol-5-ol] | 0.0337 µM | < 0.1 µM
13 | N#Cc1cccc(NC(=O)N2C[C@H]3C[C@@H](c4ccccc4)C[C@H]3C2)c1 [Example 107, N-(3-cyanophenyl)-5-phenyl-octahydrocyclopenta[c] pyrrole-2-carboxamide] | 10 µM | > 10 µM
14 | COc1ccc(NC(=O)N2C[C@@H]3C[C@@](O)(Cc4ccccc4)C[C@@H]3C2)cc1 [Example 126, (3aR,5r,6aS)-5-benzyl-5-hydroxy-N-(4-methoxy-phenyl)hexahydro-cyclopenta[c]pyrrole-2(1H)-carboxamide] | 10 µM | > 10 µM
15 | O=C(CN1C[C@@H]2C[C@@](O)(Cc3ccccc3)C[C@@H]2C1)c1ccc(O)cn1 [Example 140, 2-((3aR,5r,6S)-5-benzyl-5-hydroxyhexahydrocyclo-penta[c]pyrrol-2(1H)-yl)-1-(5-hydroxypyridin-2-yl)ethanone] | 6.94 µM | 1 to 10 µM
16 | Cc1ccc(NC(=O)N2C[C@@H]3C[C@@](O)(Cc4ccccc4)C[C@@H]3C2)c(C)c1 [Example 121, (3aR,5r,6aS)-5-benzyl-N-(2,4-dimethylphenyl)-5-hydroxyhexahydrocyclo-penta[c]pyrrole-2(1H)-carboxamide] | 10 µM | > 10 µM
17 | CC(C)(C)c1ccc([C@]2(O)C[C@H]3CN(C(=O)Nc4cccc(C#N)c4)C[C@H]3C2)cc1 [Example 52] | 10 µM | > 10 µM
18 | CC(C)(C)c1ccc([C@]2(O)C[C@H]3CN(C(=O)Nc4ccccc4)C[C@H]3C2)cc1 [Example 54] | 10 µM | > 10 µM
19 | O=C(Nc1ccc(O)cc1)N1C[C@H]2C[C@@H](c3ccccc3)C[C@H]2C1 [Example 100, N-(4-hydroxyphenyl)-5-phenyl-octahydrocyclopenta[c] pyrrole-2-carboxamide] | 10 µM | > 10 µM
20 | COc1ccc(C(=O)CN2C[C@@H]3C[C@@](O)(Cc4ccccc4)C[C@@H]3C2)cn1 [Example 161, 2-((3aR,5r,6aS)-5-benzyl-5-hydroxyhexahydrocyclo-penta[c]pyrrol-2(1H)-yl)-1-(6-methoxypyridin-3-yl)ethanone] | 10 µM | > 10 µM
21 | O=C(CN1C[C@@H]2C[C@@](O)(Cc3ccc(F)cc3)C[C@@H]2C1)c1ccc(O)cn1 [Example 166, 2-((3aR,5r,6aS)-5-(4-fluorobenzyl)-5-hydroxyhexahydrocyclo-penta[c]pyrrol-2(1H)-yl)-1-(5-hydroxypyridin-2-yl)ethanone] | 6.4 µM | 1 to 10 µM
22 | Oc1ccc([C@H](O)CN2C[C@@H]3C[C@@](O)(Cc4ccccc4)C[C@@H]3C2)cc1 [Example 137, (3aR,5S,6aS)-5-benzyl-2-((S)-2-hydroxy-2-(4-hydroxyphenyl)ethyl)octa-hydrocyclopenta[c]pyrrol-5-ol] | 0.0204 µM | < 0.1 µM
23 | COc1ccccc1NC(=O)N1C[C@@H]2C[C@@](O)(Cc3ccccc3)C[C@@H]2C1 [Example 128, (3aR,5r,6aS)-5-benzyl-5-hydroxy-N-(2-meth-oxyphenyl)hexahydro-cyclopenta[c]pyrrole-2(1H)-carboxamide] | 10 µM | > 10 µM
24 | COc1ccc(C)cc1NC(=O)N1C[C@@H]2C[C@@](O)(c3ccc(F)cc3)C[C@@H]2C1 [Example 42] | 10 µM | > 10 µM
25 | COc1ccc(C(=O)CN2C[C@@H]3C[C@@](O)(Cc4ccccc4)C[C@@H]3C2)cc1 [Example 132, 2-((3aR,5r,6aS)-5-benzyl-5-hydroxyhexahydrocyclo-penta[c]pyrrol-2(1H)-yl)-1-(4-methoxyphenyl)ethanone] | 10 µM | > 10 µM
26 | O=C(CN1C[C@@H]2C[C@@](O)(Cc3ccccc3)C[C@@H]2C1)c1cc(F)c(O)c(F)c1 [Example 159, 2-((3aR,5r,6aS)-5-benzyl-5-hydroxyhexahydrocyclo-penta[c]pyrrol-2(1H)-yl)-1-(3,5-difluoro-4-hydroxyphenyl)ethanone] | 11.6 µM | > 10 µM
27 | COC(=O)c1ccc(NC(=O)N2C[C@@H]3C[C@@](O)(c4ccccc4C)C[C@@H]3C2)cc1 [Example 22, Methyl 4-(5-hydroxy-5-(o-tolyl)octahydrocyclopenta [c]pyrrole-2-carboxamido)benzoate] | 10 µM | > 10 µM
28 | O=C(Nc1ccc(F)cc1)N1C[C@@H]2C[C@@](O)(c3ccccc3)C[C@@H]2C1 [Example 6] | 10 µM | > 10 µM
29 | O=C(COc1ccc(C(=O)CN2C[C@@H]3C[C@@](O)(Cc4ccccc4)C[C@@H]3C2)cc1F)c1ccc(O)c(F)c1 [Example 172, 2-((3aR,5r,6aS)-5-benzyl-5-hydroxyhexahydrocyclo-penta[c]pyrrol-2(1H)-yl)-1-(3-fluoro-4-(2-(3-fluoro-4-hydroxyphenyl)-2-oxoethoxy)phenyl)ethanone] | 10 µM | > 10 µM
30 | O=C1CCc2cc(C(=O)CN3C[C@@H]4C[C@@](O)(Cc5ccccc5)C[C@@H]4C3)ccc2N1 [Example 148, 6-(2-((3aR,5r,6aS)-5-benzyl-5-hydroxyhexahydrocyclo-penta[c]pyrrol-2(1H)-yl)acetyl)-3,4-dihydroquinolin-2(1H)-one] | 0.137 µM | 0.1 to 1 µM
31 | COc1ccc(C)cc1NC(=O)N1C[C@@H]2C[C@@](O)(c3ccccc3C)C[C@@H]2C1 [Example 23, 5-hydroxy-N-(2-methoxy-5-methylphenyl)-5-(2-methylphenyl)-octahydrocyclopenta[c] pyrrole-2-carboxamide] | 10 µM | > 10 µM

Source: patent US10052306B2 (LUC THERAPEUTICS, INC., priority 2013, dated 2018)
